According to ChEMBL document CHEMBL1201862, “PubChem BioAssay data set” (2004):
Active and inactive are the calls of the source. For most assays here, no stated cut-off is given here; in the data, actives have a measured IC50 and inactives only a lower limit.

Assays:
Assay type in all cases: functional
Protein RecA = molecular target: T1, Protein RecA (Mycobacterium tuberculosis, UniProt P9WHJ3); test: Fluorescence Cell-Free Homogeneous Dose Retest to Identify Inhibitors of RecA-Intein Splicing Activity. [Related pubchem assays (depositor defined):AID2097, AID2223, AID489010, AID492950]
T1 sequence (P9WHJ3 whole entry): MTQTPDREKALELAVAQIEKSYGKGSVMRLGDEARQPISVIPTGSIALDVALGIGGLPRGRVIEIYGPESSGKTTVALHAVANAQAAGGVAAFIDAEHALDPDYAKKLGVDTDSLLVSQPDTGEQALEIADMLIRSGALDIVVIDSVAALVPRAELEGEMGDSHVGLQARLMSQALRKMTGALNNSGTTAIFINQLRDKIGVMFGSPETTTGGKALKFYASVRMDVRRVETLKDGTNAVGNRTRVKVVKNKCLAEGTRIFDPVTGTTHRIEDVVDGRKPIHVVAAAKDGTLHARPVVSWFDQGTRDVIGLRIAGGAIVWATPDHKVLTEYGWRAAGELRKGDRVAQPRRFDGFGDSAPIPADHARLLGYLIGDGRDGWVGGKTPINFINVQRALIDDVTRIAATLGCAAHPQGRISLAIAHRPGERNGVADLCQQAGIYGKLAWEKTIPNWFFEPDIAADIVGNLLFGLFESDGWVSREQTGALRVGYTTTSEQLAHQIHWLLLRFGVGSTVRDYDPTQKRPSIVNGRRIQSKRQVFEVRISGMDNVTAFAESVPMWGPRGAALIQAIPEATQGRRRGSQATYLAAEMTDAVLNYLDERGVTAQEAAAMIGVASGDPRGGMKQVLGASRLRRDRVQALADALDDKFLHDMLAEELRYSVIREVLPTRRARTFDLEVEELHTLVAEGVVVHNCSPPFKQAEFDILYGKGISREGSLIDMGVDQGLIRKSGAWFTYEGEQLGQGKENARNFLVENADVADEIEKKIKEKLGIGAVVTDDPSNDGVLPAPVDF

[1] = molecular target: T2, Sentrin-specific protease 7 (Homo sapiens, UniProt Q9BQF6);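 further: Luminescence-based dose-response confirmation of ultra-high-throughput screening hits, measuring inhibition of SENP7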
T2 sequence (Q9BQF6 whole entry): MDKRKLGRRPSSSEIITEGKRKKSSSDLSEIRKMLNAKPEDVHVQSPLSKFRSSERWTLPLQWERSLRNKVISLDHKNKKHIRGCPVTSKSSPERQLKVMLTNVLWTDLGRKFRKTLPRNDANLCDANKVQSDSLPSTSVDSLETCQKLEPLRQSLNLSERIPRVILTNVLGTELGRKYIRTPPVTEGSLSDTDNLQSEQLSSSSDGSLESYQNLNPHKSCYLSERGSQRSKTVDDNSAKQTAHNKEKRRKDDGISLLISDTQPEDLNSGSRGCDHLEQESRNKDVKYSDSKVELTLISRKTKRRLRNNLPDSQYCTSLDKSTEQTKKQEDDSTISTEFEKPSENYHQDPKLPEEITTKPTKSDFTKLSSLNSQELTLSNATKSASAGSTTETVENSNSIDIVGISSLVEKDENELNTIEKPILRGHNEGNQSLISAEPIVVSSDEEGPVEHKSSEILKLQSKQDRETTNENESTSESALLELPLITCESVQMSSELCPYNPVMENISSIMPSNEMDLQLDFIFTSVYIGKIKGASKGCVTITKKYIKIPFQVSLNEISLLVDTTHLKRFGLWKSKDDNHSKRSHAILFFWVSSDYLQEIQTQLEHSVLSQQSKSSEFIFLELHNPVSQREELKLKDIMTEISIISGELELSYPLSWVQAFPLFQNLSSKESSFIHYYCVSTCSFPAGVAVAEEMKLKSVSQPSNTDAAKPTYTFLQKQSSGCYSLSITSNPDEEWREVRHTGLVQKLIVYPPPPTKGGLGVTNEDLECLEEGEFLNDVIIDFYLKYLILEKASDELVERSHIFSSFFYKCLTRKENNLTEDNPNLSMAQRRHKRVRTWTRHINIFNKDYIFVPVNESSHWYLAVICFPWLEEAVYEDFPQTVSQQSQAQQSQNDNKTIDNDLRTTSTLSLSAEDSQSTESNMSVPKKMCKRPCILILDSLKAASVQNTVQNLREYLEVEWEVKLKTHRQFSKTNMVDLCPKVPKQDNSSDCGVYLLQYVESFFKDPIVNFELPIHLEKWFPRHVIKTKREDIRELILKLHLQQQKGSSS

[2] = molecular target: T3, Sentrin-specific protease 8 (Homo sapiens, UniProt Q96LD8);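 further: luminescence read-out of SENP8 inhibition, dose-response confirmation following an ultra-high-throughput screen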
T3 sequence (Q96LD8 whole entry): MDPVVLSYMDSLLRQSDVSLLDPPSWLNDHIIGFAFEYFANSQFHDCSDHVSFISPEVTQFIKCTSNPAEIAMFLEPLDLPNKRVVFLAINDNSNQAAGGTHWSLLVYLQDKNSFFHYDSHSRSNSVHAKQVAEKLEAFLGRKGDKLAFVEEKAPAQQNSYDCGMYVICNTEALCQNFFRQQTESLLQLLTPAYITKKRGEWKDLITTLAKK

SMILES | EC50 (Protein RecA) | IC50 [1] | IC50 [2]
COC(=O)c1cccc(-c2ccc(C(c3c(C)n[nH]c3O)c3c(C)n[nH]c3O)o2)c1 | 0.175 µM (active) |  | 
Cc1cc(/C=C2\SC(=S)N(C)C2=O)c(C)n1-c1ccc(O)cc1 |  | 5.42 µM (active) | 8.79 µM (active)
O=C1/C(=N\c2cccc(O)c2)C(N2CCCCC2)=C(O)c2ccccc21 | 0.364 µM (active) |  | 
Cc1ccc(C(=O)NNc2cc(N3CCCC3)nc(N3CCCC3)n2)cc1 |  | 1.74 µM (active) | 4.6 µM (active)
